# Laboratory results from ChEMBL document CHEMBL1136955, “Compelling P1 substituent affect on metalloprotease binding profile enables the design of a novel cyclohexyl core scaffold with excellent MMP selectivity and HER-2 sheddase inhibition” (Bioorg Med Chem Lett, 2009).
# What was measured:
# Stromelysin-1 = Stromelysin-1 (Homo sapiens, UniProt P08254); assay: Inhibition of human MMP3
# [1] = molecular target: 72 kDa type IV collagenase (Homo sapiens, UniProt P08253); assay: Inhibition of human MMP2
# [2] = molecular target: Matrix metalloproteinase-9 (Homo sapiens, UniProt P14780); assay: Inhibition of human MMP9
# Interstitial collagenase = molecular target: T1, Interstitial collagenase (Homo sapiens, UniProt P03956); assay: Inhibition of human MMP1
# T1 sequence (P03956 whole entry): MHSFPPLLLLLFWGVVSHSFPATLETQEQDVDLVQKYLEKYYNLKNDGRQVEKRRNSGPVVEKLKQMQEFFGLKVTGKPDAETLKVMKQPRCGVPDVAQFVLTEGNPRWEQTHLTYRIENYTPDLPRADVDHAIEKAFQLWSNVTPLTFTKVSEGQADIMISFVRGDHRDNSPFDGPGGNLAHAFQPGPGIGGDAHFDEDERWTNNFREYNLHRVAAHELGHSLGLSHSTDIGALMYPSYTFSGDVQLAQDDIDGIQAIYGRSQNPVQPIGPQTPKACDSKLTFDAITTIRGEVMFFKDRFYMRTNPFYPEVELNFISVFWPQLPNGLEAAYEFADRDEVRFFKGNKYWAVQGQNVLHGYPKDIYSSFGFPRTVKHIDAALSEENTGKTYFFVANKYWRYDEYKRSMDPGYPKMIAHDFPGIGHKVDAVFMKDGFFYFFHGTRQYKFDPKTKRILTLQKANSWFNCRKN
# [3] = molecular target: T2, Disintegrin and metalloproteinase domain-containing protein 10 (Homo sapiens, UniProt O14672); assay: Inhibition of human recombinant ADAM10
# T2 sequence (O14672 whole entry): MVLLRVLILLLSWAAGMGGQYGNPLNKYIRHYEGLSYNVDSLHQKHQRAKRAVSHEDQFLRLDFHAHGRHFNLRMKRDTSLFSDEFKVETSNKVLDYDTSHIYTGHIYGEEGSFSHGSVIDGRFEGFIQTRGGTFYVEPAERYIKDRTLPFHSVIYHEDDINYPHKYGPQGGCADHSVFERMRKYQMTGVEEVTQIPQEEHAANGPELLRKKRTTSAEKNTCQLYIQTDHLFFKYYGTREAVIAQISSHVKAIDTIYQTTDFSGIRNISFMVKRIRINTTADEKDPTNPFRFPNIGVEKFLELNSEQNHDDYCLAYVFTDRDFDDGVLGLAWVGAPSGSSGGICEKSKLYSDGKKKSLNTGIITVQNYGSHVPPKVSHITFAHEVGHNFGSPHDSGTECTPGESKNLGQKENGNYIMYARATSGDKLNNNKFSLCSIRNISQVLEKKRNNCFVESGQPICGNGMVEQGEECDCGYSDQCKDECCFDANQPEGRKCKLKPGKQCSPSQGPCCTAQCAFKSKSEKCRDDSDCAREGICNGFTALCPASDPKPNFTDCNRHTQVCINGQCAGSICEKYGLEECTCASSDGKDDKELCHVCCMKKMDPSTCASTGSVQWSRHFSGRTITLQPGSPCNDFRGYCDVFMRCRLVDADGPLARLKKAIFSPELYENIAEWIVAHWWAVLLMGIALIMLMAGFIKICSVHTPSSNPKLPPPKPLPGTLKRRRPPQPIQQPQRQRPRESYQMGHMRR
# Homo sapiens = species: Homo sapiens; assay: Selectivity ratio of IC50 for human MMP2 to IC50 for human ADAM10
# Chain of Matrix metalloproteinase-9 (P14780 whole entry): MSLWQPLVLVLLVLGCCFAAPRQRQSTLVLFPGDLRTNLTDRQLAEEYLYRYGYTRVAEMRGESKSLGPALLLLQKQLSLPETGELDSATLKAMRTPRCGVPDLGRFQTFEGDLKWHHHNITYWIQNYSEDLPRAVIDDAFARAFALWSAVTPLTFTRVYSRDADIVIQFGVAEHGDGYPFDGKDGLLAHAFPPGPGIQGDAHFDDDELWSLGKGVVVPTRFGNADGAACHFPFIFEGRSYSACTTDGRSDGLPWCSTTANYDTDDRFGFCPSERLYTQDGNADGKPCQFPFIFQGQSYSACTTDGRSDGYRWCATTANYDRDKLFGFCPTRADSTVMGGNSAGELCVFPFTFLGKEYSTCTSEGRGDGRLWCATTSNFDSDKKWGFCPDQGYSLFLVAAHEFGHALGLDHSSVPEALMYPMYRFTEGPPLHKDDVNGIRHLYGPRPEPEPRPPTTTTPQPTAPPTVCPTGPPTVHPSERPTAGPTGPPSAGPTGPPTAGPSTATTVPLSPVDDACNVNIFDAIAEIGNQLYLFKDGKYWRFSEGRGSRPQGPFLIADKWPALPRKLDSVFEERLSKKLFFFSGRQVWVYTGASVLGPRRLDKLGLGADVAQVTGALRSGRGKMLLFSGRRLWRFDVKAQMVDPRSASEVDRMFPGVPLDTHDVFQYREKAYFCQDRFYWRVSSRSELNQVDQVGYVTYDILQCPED
# Chain of 72 kDa type IV collagenase (P08253 whole entry): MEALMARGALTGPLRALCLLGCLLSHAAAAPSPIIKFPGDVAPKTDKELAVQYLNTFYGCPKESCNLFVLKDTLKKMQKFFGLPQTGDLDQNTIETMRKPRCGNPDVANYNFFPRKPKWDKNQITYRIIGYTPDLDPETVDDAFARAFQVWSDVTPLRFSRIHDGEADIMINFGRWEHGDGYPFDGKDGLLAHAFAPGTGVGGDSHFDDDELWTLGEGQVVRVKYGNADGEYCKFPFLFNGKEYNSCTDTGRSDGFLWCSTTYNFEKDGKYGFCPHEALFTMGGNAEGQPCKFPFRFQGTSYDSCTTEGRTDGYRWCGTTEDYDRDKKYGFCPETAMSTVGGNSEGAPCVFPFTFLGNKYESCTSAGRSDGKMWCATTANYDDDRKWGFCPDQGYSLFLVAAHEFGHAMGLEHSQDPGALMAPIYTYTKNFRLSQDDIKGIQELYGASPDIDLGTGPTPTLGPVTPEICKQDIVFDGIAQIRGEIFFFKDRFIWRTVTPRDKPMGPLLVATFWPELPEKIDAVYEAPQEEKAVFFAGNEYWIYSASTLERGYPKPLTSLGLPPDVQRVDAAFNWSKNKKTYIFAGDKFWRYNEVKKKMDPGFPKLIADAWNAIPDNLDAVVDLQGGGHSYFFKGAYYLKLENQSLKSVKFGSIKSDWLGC
# Chain of Stromelysin-1 (P08254 whole entry): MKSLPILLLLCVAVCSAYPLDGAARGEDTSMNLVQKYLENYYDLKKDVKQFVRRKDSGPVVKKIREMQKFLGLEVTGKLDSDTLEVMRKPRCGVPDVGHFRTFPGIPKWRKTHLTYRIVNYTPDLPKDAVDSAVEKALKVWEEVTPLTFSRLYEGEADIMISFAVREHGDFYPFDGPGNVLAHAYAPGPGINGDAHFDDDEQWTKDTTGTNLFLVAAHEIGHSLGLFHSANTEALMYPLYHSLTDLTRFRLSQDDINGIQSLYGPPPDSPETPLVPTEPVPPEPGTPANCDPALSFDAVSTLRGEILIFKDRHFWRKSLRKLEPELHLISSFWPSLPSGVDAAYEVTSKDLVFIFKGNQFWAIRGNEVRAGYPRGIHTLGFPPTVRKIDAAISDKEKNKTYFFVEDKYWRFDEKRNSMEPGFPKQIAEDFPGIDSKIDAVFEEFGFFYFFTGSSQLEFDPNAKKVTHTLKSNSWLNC
SMILES,IC50 (Stromelysin-1),IC50 [1],IC50 [2],IC50 (Interstitial collagenase),IC50 [3],Ratio IC50 (Homo sapiens)
O=C(NO)[C@H]1CC2(CC2)CN[C@@H]1C(=O)N1CCC(c2ccccc2)C1 (some centres undefined),> 5000 nM,998 nM,> 5000 nM,,,
O=C(NO)[C@H]1C[C@@H](CC(=O)N2CCCCC2)CC[C@@H]1C(=O)N1CCN(c2ccccc2)CC1,> 5000 nM,100 nM,683 nM,> 5000 nM,15 nM,
O=C(NO)[C@H]1CC(CC(=O)N2CCOCC2)CC[C@@H]1C(=O)N1CCN(c2ccccc2)CC1 (some centres undefined),,236 nM,,,83 nM,
CC(C)c1cccc(C2CCN(C(=O)[C@H]3CC[C@@H](CC(=O)N4CCCCC4)C[C@@H]3C(=O)NO)CC2)c1,,> 5000 nM,,,915 nM,
O=C(CC1CN[C@H](C(=O)N2CCC(c3ccccc3)C2)[C@@H](C(=O)NO)C1)NCCCCCNC(=O)OCc1ccccc1 (mixture of isomers),5000 nM,1280 nM,1790 nM,> 5000 nM,302 nM,
CN1CC(CC(=O)N2CCCC2)C[C@H](C(=O)NO)[C@H]1C(=O)N1CCN(c2ccccc2)CC1 (mixture of isomers),,92 nM,,,167 nM,
CN1CC(CC(=O)N2CCCCC2)C[C@H](C(=O)NO)[C@H]1C(=O)N1CCN(c2ccccc2)CC1 (mixture of isomers),,81 nM,,,77 nM,
O=C(NO)[C@H]1CC(CC(=O)N2CC[C@@H](O)C2)CC[C@@H]1C(=O)N1CCN(c2ccccc2)CC1 (mixture of isomers),,156 nM,,,111 nM,

# Second part, the compound after the results:
IC50 (Stromelysin-1),IC50 [1],IC50 [2],IC50 (Interstitial collagenase),IC50 [3],Ratio IC50 (Homo sapiens),SMILES
,180 nM,,> 5000 nM,1540 nM,,O=C(NO)[C@H]1CCCC[C@@H]1C(=O)N1CCN(c2ccccc2)CC1
,1090 nM,,,,,O=C(NO)[C@H]1C[C@H](CC(=O)N2CCCCC2)CC[C@@H]1C(=O)N1CCN(c2ccccc2)CC1
> 5000 nM,> 5000 nM,> 5000 nM,> 5000 nM,21 nM,,CC(C)c1cccc(C2CCN(C(=O)[C@H]3CC[C@H](CC(=O)N4CCCCC4)C[C@@H]3C(=O)NO)CC2)c1
,8 nM,,,19 nM,,O=C(NO)[C@H]1CC(CC(=O)N2CCCC2)CN[C@@H]1C(=O)N1CCN(c2ccccc2)CC1 (mixture of isomers)
> 5000 nM,1660 nM,> 5000 nM,> 5000 nM,161 nM,,NCCCCCNC(=O)CC1CN[C@H](C(=O)N2CCC(c3ccccc3)C2)[C@@H](C(=O)NO)C1 (mixture of isomers)
> 5000 nM,321 nM,1880 nM,> 5000 nM,,,O=C(NO)[C@H]1CC(CC(=O)N2CCCCC2)CC[C@@H]1C(=O)N1CCN(c2ccccc2)CC1 (mixture of isomers)
> 5000 nM,68 nM,2500 nM,> 5000 nM,30 nM,,CN1CCN(C(=O)CC2CC[C@H](C(=O)N3CCN(c4ccccc4)CC3)[C@@H](C(=O)NO)C2)CC1 (mixture of isomers)
> 5000 nM,106 nM,577 nM,> 5000 nM,196 nM,2,O=C(NO)[C@H]1CC2(CC[C@@H]1C(=O)N1CCN(c3ccccc3)CC1)CC2 (mixture of isomers)
> 5000 nM,271 nM,1440 nM,> 5000 nM,64 nM,,O=C(NO)[C@H]1CC(CC(=O)N2CCCC2)CC[C@@H]1C(=O)N1CCN(c2ccccc2)CC1 (mixture of isomers)
